Where two headings read alike, the source gives them in different places.
How the values were obtained:
[1] = tested on: P. falciparum Dd2 (PfLuc) line expressing firefly luciferase, asexual blood stage; assay: microbe, parasite or virus in culture; assay type: cell-based, Plasmodium falciparum; settings: Plasmodium falciparum
[2] = tested on: P. falciparum Dd2; assay: SYBR green I asexual blood stage proliferation assay (96 h); assay type: cell-based, Plasmodium falciparum; settings: Plasmodium falciparum, DD2, Sybr Green I, 11-pt dose response, 96hr; for IC50: read-out: CDD P. falciparum Sybr Green I ABS 11-pt Reconfirmation Dose Response (96hr): IC50; for Emax: read-out: CDD P. falciparum Sybr Green I ABS 11-pt Reconfirmation Dose Response (96hr): Maximum inhibition (%)
[3] = tested on: P. berghei liver stage (PbLuc); assay: P. berghei luciferase liver stage (PbLuc) assay in HepG2-A16-CD81 hepatocytes; assay type: cell-based, Plasmodium berghei; settings: Plasmodium berghei; for Emax: 12pt dose response, maximum inhibition
[4] = target: recombinant firefly luciferase (Photinus pyralis, UniProt P08659); assay: biochemical; settings: for Emax: maximum inhibition, read-out: rLuc inhibition dose response: Maximum inhibition (%)
[5] = tested on: HepG2-A16-CD81 hepatocytes; assay: HepG2 cytotoxicity screening (CellTiter-Glo); settings: for IC50: HepG2-A16-CD81, read-out: HepG2 tox IC50; for HepG2 cytotoxicity 12pt dose response: Maximum inhibition (%): 12pt dose response
[6] = HepG2 cytotoxicity screening (CellTiter-Glo); settings: human, uninfected HepG2-A16-CD81 (EGFP) hepatocytes
[7] = DD2, read-out: CDD P. falciparum Luciferase ABS 11-pt Reconfirmation Dose Response (48hr): IC50 (μM), 11-pt dose response, 48hr
[8] = DD2, 8-pt dose response, 96hr, read-out: CDD P. falciparum Luciferase ABS 8-pt Reconfirmation Dose Response (96hr): IC50
[9] = DD2, 8-pt dose response, 96hr, read-out: CDD P. falciparum Luciferase ABS 8-pt Reconfirmation Dose Response (96hr): Maximum inhibition (%)
[10] = DD2, 11-pt dose response, 48hr, read-out: CDD P. falciparum Luciferase ABS 11-pt Reconfirmation Dose Response (48hr): Maximum inhibition (%)
[11] = DD2, 11-pt dose response, 96hr, read-out: CDD P. falciparum Luciferase ABS 11-pt Reconfirmation Dose Response (96hr): IC50
[12] = DD2, 11-pt dose response, 96hr, read-out: CDD P. falciparum Luciferase ABS 11-pt Reconfirmation Dose Response (96hr): Maximum inhibition (%)
[13] = HepG2-A16-CD81, 48 h, 48 h liver stage, HepG2-A16-CD81, read-out: Pbluc (EEF) IC50
[14] = HepG2-A16-CD81, 12pt dose response, read-out: PbLuc 12pt dose response: IC50
[15] = dose response, read-out: rLuc inhibition dose response: IC50

Chain of recombinant firefly luciferase (P08659 whole entry): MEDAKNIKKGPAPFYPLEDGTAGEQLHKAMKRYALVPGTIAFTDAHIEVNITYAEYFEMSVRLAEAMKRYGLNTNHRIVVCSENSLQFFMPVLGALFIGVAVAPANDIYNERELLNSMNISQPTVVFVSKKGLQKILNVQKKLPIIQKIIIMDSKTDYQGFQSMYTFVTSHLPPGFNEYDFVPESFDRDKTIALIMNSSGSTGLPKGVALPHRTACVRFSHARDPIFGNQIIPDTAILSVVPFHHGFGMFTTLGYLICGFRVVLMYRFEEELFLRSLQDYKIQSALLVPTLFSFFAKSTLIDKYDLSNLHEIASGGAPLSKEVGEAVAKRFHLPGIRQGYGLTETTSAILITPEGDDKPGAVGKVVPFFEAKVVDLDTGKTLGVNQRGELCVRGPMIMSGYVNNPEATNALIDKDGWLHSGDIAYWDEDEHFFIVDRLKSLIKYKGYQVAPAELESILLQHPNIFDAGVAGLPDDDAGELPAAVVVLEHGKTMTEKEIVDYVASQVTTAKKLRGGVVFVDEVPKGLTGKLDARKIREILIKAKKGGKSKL

Structure (SMILES)	IC50 [1, 7] [µM]	IC50 [1, 8] [µM]	Emax [1, 9] [%]	Emax [1, 10] [%]	IC50 [1, 11] [µM]	Emax [1, 12] [%]	IC50 [2] [µM]	Emax [2] [%]	IC50 [3, 13] [µM]	IC50 ([4]; read-out: rLuc IC50) [µM]	IC50 [5] [µM]	IC50 [3, 14] [µM]	Emax ([3]; HepG2-A16-CD81, 48 h) [%]	Emax ([4]; dose response) [%]	IC50 [4, 15] [µM]	IC50 [6] [µM]	HepG2 Cytotoxicity primary screen (2uM): % Inhibition [5] [%]	HepG2 cytotoxicity 12pt dose response: Maximum inhibition (%) [5] [%]	inhibition at 2 µM [6] [%]
CCOc1ccc(CN2CCCC(c3cc4ncccc4[nH]3)C2)cc1 (centres unmarked) [DDD01057418]	1.07	0.96	95.5	96.8	0.872	100	0.934	95.7	5.76	> 25	> 25								
Clc1ccc(-c2ccc(C3CNCCO3)nc2)cc1 (centres unmarked) [DDD01060778]	1.38	0.46	93	97.5	1.36	99.3	> 12.5	56.1	< 0.000141	0.06	> 25								
COC1CCN(c2ccc(NC(=O)C3CC3)cc2C(F)(F)F)CC1 [UCSD-0582177]												14.7	87.5	16.4	> 25	> 25	12.40	23	
CCc1cccc(N2CCC(NC(=O)c3ccco3)CC2)c1 [UCSD-0587427]												11.1	87.3	11.1	> 25	> 25	4.14	3.68	
Cn1cnc2c1CCN(Cc1csc(-c3ccccc3F)n1)C2 [UCSD-0598805]												< 0.000141	84.3	81.2	15	> 25		6.01	0.19
COc1cccc(CN2CCN(c3ccc4nncn4n3)C(C)C2)c1 (centres unmarked) [UCSD-0601459]												12.6	92.1	0.876	> 25	> 25	-7.20	49.9	
COC(=O)c1sc(NCc2ccc(N3CCC(O)CC3)c(F)c2)nc1Cl [UCSD-0616240]												12.5	87.4	26.9	> 25	17.7	5.85	58.9	
CCc1nc(CN2CCCN(c3ncnc4ccccc34)CC2)no1 [UCSD-0620461]												0.691	96.1	3.79	> 50	> 1.85		60.2	6.37
COc1cccc(CNc2cc(C)nc(-c3ccncc3)n2)c1OC [UCSD-0704521]												4.43	104	11.7	> 25	9.86	-4.44	80.5	
CC(C)Cc1ccc(S(=O)(=O)Nc2ccc(=O)n(C)c2)cc1 [UCSD-0710590]												0.0472	91.6	7.28	> 25	> 0.31		60.9	3.02
Cn1cc(NS(=O)(=O)c2ccc(OC(F)(F)F)cc2)ccc1=O [UCSD-0710715]												13.1	69.6	16.1	> 25	> 25	-4.65		
COc1c(CNCc2ccc(C(=O)N(C)C(C)C)cc2)c(C)nn1C [UCSD-0723791]												2.49	86.3	-4.69	> 25	16.6		53.2	0.82
O=C(Nc1ccc(Cl)cn1)c1nn(C2CCS(=O)(=O)C2)c2c1CCCC2 (centres unmarked) [UCSD-0749819]												> 25	60	2.39	> 25	> 25		-0.0195	-5.58
Cc1cnc(NC(=O)c2csc(NC3CCCC3)n2)s1 [UCSD-0752486]												8.33	93.6	65.8	24.8	> 25		48.7	
Cc1[nH]/c(=N\C(=O)c2csc(NC3CCCC3)n2)sc1C [UCSD-0752597]												0.832	121	92.3	44.4	11		87.9	8
O=C(NC1CCCC1)O[C@H]1COCCN(c2nc3ccccc3s2)C1 [UCSD-0785020]												6.66	88.1	16.5	> 25	> 25		-1.51	0.48
CCS(=O)(=O)N1CCc2ccc(NC(=O)Nc3cccc(C)c3)cc21 [UCSD-0785768]												3.66	77.6	36.5	> 50	> 16.6		52.3	27.5
CCS(=O)(=O)N1CCc2ccc(NC(=O)Nc3cccc(F)c3)cc21 [UCSD-0785772]												9.31	90.3	22.1	> 25	17.8		50.2	17.6
Cc1nc(NC(=O)c2c(-n3cnnn3)sc3c2CCCC3)sc1C [UCSD-0786506]												0.253	88.6	15	> 50	> 50		4.09	10.9
Cc1nc(NC(=O)c2c(-n3cnnn3)sc(C)c2C)sc1C [UCSD-0786548]												0.0144		1.63	> 25	> 25		8.84	4.63
CC(C)Cn1ccc2c(NC(=O)c3n[nH]c4c3CCC4)cccc21 [UCSD-0786893]												13.6		38.5	> 25	> 25	3.16	32.3	
CCCc1cc(=O)[nH]c(-n2nc(C3CC3)cc2N)n1 [UCSD-0786964]												4.69		12.2	> 25	20.5		75.4	-26.2
CC(C)c1cc(=O)[nH]c(-n2nc(C3CC3)cc2N)n1 [UCSD-0786965]												1.61	83	1.26	> 25	18.9		73.6	3.79
Cc1cc(NC(=O)C(C)C)n(-c2nc(C)c(C)c(=O)[nH]2)n1 [UCSD-0786977]												0.129	100	12.4	> 50	> 25		36.8	
Cc1cc(C(=O)N2CCN(c3nc4c(C(C)C)cccc4s3)CC2)no1 [UCSD-0787009]												0.822	98.9	34.2	> 50	> 25		1.29	
